This series relates to CCRIS mutagenicity, Ames/micronucleus/aberration tests. As to the kind of experiment: CCRIS mutagenicity studies.
[1] abbreviates: Test System: AMES SALMONELLA TYPHIMURIUM, Strain/Indicator: TA97, Metabolic Activation: NONE, Method: STANDARD PLATE.
The mark [2] stands for this setting: Test System: AMES SALMONELLA TYPHIMURIUM, Strain/Indicator: TA98, Metabolic Activation: NONE, Method: STANDARD PLATE.
Setting [3] is: Test System: AMES SALMONELLA TYPHIMURIUM, Strain/Indicator: TA1535, Metabolic Activation: NONE, Method: STANDARD PLATE.
The mark [4] stands for this setting: Test System: AMES SALMONELLA TYPHIMURIUM, Strain/Indicator: TA100, Metabolic Activation: NONE, Method: STANDARD PLATE.
Setting [5] is: Test System: AMES SALMONELLA TYPHIMURIUM, Strain/Indicator: TA100, Metabolic Activation: RAT, LIVER, S-9, PCB, Method: STANDARD PLATE.
Where [6] appears, read: Test System: AMES SALMONELLA TYPHIMURIUM, Strain/Indicator: TA98, Metabolic Activation: NONE, Method: PREINCUBATION
The mark [7] stands for this setting: Test System: AMES SALMONELLA TYPHIMURIUM, Strain/Indicator: TA100, Metabolic Activation: NONE, Method: PREINCUBATION
Where [8] appears, read: Test System: AMES SALMONELLA TYPHIMURIUM, Strain/Indicator: TA1537, Metabolic Activation: NONE, Method: STANDARD PLATE.
The mark [9] stands for this setting: Test System: AMES SALMONELLA TYPHIMURIUM, Strain/Indicator: TA1538, Metabolic Activation: NONE, Method: STANDARD PLATE.

Structures are written as SMILES. Active and inactive are the calls of the source. The rule behind the calls is not given here.

On to `O=C1OC(O)C(CCl)=C1Cl` (stereo not given), for which the mutagenic call is “active; positive” under setting [1]; “active; positive” under setting [2]; “active; positive” (Test System: AMES SALMONELLA TYPHIMURIUM, Strain/Indicator: TA102, Metabolic Activation: NONE, Method: STANDARD PLATE); “active; positive” under setting [3]; “active; positive” (Test System: CHINESE HAMSTER OVARY, Strain/Indicator: CHO-KTL3 (HPRT)/6-THIOGUANINE, Metabolic Activation: NONE); “active; positive” (Test System: UDS RAT HEPATOCYTES, Strain/Indicator: THYMIDINE INCORPORATION, Metabolic Activation: NONE, Method: AUTORADIOGRAPHY).
As to `CNC(=O)NO`, the mutagenic call was “inactive; negative” under setting [2] and “inactive; negative” under setting [4].
In the case of `CC(=O)Nc1ccc(Cc2ccc(N)cc2)cc1`, the mutagenic call reads like this: under setting [2], “inactive; negative”; (Test System: AMES SALMONELLA TYPHIMURIUM, Strain/Indicator: TA98, Metabolic Activation: RAT, LIVER, S-9, PCB, Method: STANDARD PLATE) “inactive; negative”; under setting [4], “inactive; negative”; under setting [5], “inactive; negative”.
As for `CC(Br)CBr` (stereo not given), the mutagenic call by setting is: under setting [1], “inactive; negative”; (Test System: AMES SALMONELLA TYPHIMURIUM, Strain/Indicator: TA97, Metabolic Activation: RAT, LIVER, S-9, PCB, Method: STANDARD PLATE) “inactive; negative”; under setting [6], “inactive; negative”; (Test System: AMES SALMONELLA TYPHIMURIUM, Strain/Indicator: TA98, Metabolic Activation: RAT LIVER S-9, PHENOBARBITAL AND BETA-NAPHTHOFLAVONE, Method: PREINCUBATION) “inactive; negative”; under setting [7], “inactive; negative”; under setting [4], “inactive; negative”. The mutagenic call by setting is: (Test System: AMES SALMONELLA TYPHIMURIUM, Strain/Indicator: TA100, Metabolic Activation: RAT LIVER S-9, PHENOBARBITAL AND BETA-NAPHTHOFLAVONE, Method: PREINCUBATION) “inactive; negative”; (Test System: AMES SALMONELLA TYPHIMURIUM, Strain/Indicator: TA100, Metabolic Activation: RAT, LIVER, MICROSOMES, PHENOBARBITAL, NADPH COFACTORS, Method: STANDARD PLATE) “active; positive”; (Test System: AMES SALMONELLA TYPHIMURIUM, Strain/Indicator: TA100, Metabolic Activation: RAT, LIVER, MICROSOMES, PHENOBARBITAL, Method: STANDARD PLATE) “active; positive”; under setting [5], “inactive; negative”; (Test System: AMES SALMONELLA TYPHIMURIUM, Strain/Indicator: TA1534, Metabolic Activation: HOST-MEDIATED, Method: IN VIVO) “inactive; negative”; (Test System: AMES SALMONELLA TYPHIMURIUM, Strain/Indicator: TA1535, Metabolic Activation: NONE, Method: PREINCUBATION) “inactive; negative”. Besides, the mutagenic call is “inactive; negative” (Test System: AMES SALMONELLA TYPHIMURIUM, Strain/Indicator: TA1537, Metabolic Activation: NONE, Method: PREINCUBATION); “inactive; negative” (Test System: AMES SALMONELLA TYPHIMURIUM, Strain/Indicator: TA1537, Metabolic Activation: RAT LIVER S-9, PHENOBARBITAL AND BETA-NAPHTHOFLAVONE, Method: PREINCUBATION); “inactive; negative” (Test System: AMES SALMONELLA TYPHIMURIUM, Strain/Indicator: TA1950, Metabolic Activation: HOST-MEDIATED, Method: IN VIVO); “inactive; negative” (Test System: E.COLI, Strain/Indicator: WP2UVRA, Metabolic Activation: NONE, Method: PREINCUBATION); “inactive; negative” (Test System: E.COLI, Strain/Indicator: WP2UVRA, Metabolic Activation: RAT LIVER S-9, PHENOBARBITAL AND BETA-NAPHTHOFLAVONE, Method: PREINCUBATION); “active; positive” (Test System: UDS RAT HEPATOCYTES, Strain/Indicator: THY INCORP, Metabolic Activation: NONE).
For `NCCN1CCNCC1`, the mutagenic call is “inactive; negative” under setting [6]; “inactive; negative” under setting [2]; “inactive; negative” (Test System: AMES SALMONELLA TYPHIMURIUM, Strain/Indicator: TA98, Metabolic Activation: RAT, LIVER, S-9, AROCLOR 1254, Method: STANDARD PLATE); “inactive; negative” (Test System: AMES SALMONELLA TYPHIMURIUM, Strain/Indicator: TA98, Metabolic Activation: RAT, LIVER, S-9, PCB, Method: PREINCUBATION); “inactive; negative” under setting [7]; “inactive; negative” under setting [4]. The mutagenic call was “inactive; negative” (Test System: AMES SALMONELLA TYPHIMURIUM, Strain/Indicator: TA100, Metabolic Activation: RAT, LIVER, S-9, AROCLOR 1254, Method: STANDARD PLATE); “inactive; negative” (Test System: AMES SALMONELLA TYPHIMURIUM, Strain/Indicator: TA100, Metabolic Activation: RAT, LIVER, S-9, PCB, Method: PREINCUBATION); “inactive; negative” under setting [3]; “inactive; negative” (Test System: AMES SALMONELLA TYPHIMURIUM, Strain/Indicator: TA1535, Metabolic Activation: RAT, LIVER, S-9, AROCLOR 1254, Method: STANDARD PLATE); “inactive; negative” under setting [8]; “inactive; negative” (Test System: AMES SALMONELLA TYPHIMURIUM, Strain/Indicator: TA1537, Metabolic Activation: RAT, LIVER, S-9, AROCLOR 1254, Method: STANDARD PLATE). In addition, the mutagenic call is “inactive; negative” under setting [9]; “inactive; negative” (Test System: AMES SALMONELLA TYPHIMURIUM, Strain/Indicator: TA1538, Metabolic Activation: RAT, LIVER, S-9, AROCLOR 1254, Method: STANDARD PLATE); “inactive; negative” (Test System: UDS RAT HEPATOCYTES, Strain/Indicator: THY INCORP, Metabolic Activation: NONE, Method: SCINTILLATION SPECTROMETRY).
Take `CN(C)CCCn1cc[n+](C)c1/C=N/O`: the mutagenic call is “inactive; negative” under setting [1]; “inactive; negative” (Test System: AMES SALMONELLA TYPHIMURIUM, Strain/Indicator: TA97, Metabolic Activation: RAT, LIVER, S-9, Method: STANDARD PLATE); “inactive; negative” under setting [4]; “inactive; negative” (Test System: AMES SALMONELLA TYPHIMURIUM, Strain/Indicator: TA100, Metabolic Activation: RAT, LIVER, S-9, Method: STANDARD PLATE); “inactive; negative” (Test System: AMES SALMONELLA TYPHIMURIUM, Strain/Indicator: TA104, Metabolic Activation: NONE, Method: STANDARD PLATE); “inactive; negative” (Test System: AMES SALMONELLA TYPHIMURIUM, Strain/Indicator: TA104, Metabolic Activation: RAT, LIVER, S-9, Method: STANDARD PLATE). In addition, the mutagenic call was “inactive; negative” under setting [8]; “inactive; negative” (Test System: AMES SALMONELLA TYPHIMURIUM, Strain/Indicator: TA1537, Metabolic Activation: RAT, LIVER, S-9, Method: STANDARD PLATE); “inactive; negative” under setting [9]; “inactive; negative” (Test System: AMES SALMONELLA TYPHIMURIUM, Strain/Indicator: TA1538, Metabolic Activation: RAT, LIVER, S-9, Method: STANDARD PLATE).

Source of the values: PubChem BioAssay AID1259407 (Chemical Carcinogenesis Research Information System (CCRIS), 2018).
